Data published in patent US11767341B2, “Lincosamide antibiotics and uses thereof” (President and Fellows of Harvard College, priority 2017, dated 2023).
≈ marks a conversion by molar mass, not a printed value. Where two headings read alike, the source gives them in different places.

Tests used:
Test in all cases: MIC determination
Assay type in all cases: cell-based
S. aureus MMX 3035 cErmA = conditions: Staphylococcus aureus, MMX3035CERMA
S. aureus ATCC 29213 = conditions: Staphylococcus aureus
P. aeruginosa ATCC 27853 = conditions: Pseudomonas aeruginosa, ATCC27853
[1] = test system: P. aeruginosa MMX Mex parent strain; conditions: Pseudomonas aeruginosa
[2] = test system: E. faecalis MMX 847 Macrolide-Resistant; conditions: Enterococcus faecalis
[3] = test system: S. pneumoniae MMX 3031 cMefA; conditions: Streptococcus pneumoniae, MMX3031CMEFA
C. difficile BAA 1805 = conditions: Clostridioides difficile, BAA1805
[4] = test system: P. aeruginosa MMX 3476 Δmex; conditions: Pseudomonas aeruginosa
[5] = test system: S. pyogenes MMX 946 Macrolide-Resistant; conditions: Streptococcus pyogenes
[6] = test system: S. aureus Micromyx USA 300; conditions: Staphylococcus aureus, USA300
B. fragilis ATCC 25285 = conditions: Bacteroides fragilis, ATCC25285
H. influenzae ATCC 49247 = conditions: Haemophilus influenzae, ATCC49247
E. faecalis ATCC 29212 = conditions: Enterococcus faecalis
E. coli MMX 0121 ΔTolC = conditions: Escherichia coli
E. coli ATCC 25922 = conditions: Escherichia coli
[7] = test system: E. coli MMX TolC parent strain; conditions: Escherichia coli
[8] = test system: S. pneumoniae MMX 3028 cErmB; conditions: Streptococcus pneumoniae, MMX3028CERMB
S. aureus BAA 977 iErmA = conditions: Staphylococcus aureus, BAA977
S. pyogenes ATCC 19615 = conditions: Streptococcus pyogenes, ATCC19615
S. pneumoniae ATCC 49619 = conditions: Streptococcus pneumoniae, ATCC49619; S. pneumoniae ATCC 49619; read-out: MIC
E. coli MP-9 ΔTolC = conditions: Escherichia coli
K. pneumoniae ATCC 10031 = conditions: Klebsiella pneumoniae, ATCC10031; K. pneumoniae ATCC 10031; read-out: MIC
[9] = test system: S. aureus MP-549 msr(a) USA 300; conditions: Staphylococcus aureus, USA300, S. aureus MP-549 msr(a) USA 300
[10] = S. pyogenes ATCC 19615, read-out: MIC
[11] = C. difficile BAA 1805, read-out: MIC
[12] = ATCC29213, S. aureus ATCC 29213, read-out: MIC
[13] = S. pneumoniae MMX 3028 cErmB, read-out: MIC
[14] = B. fragilis ATCC 25285, read-out: MIC

| SMILES | MIC (S. aureus MMX 3035 cErmA) | MIC (S. aureus ATCC 29213; ATCC29213) | MIC (P. aeruginosa ATCC 27853) | MIC [1] | MIC [2] | MIC [3] | MIC (C. difficile BAA 1805) | MIC [4] | MIC [5] | MIC [6] | MIC (B. fragilis ATCC 25285) | MIC (H. influenzae ATCC 49247) | MIC (E. faecalis ATCC 29212; ATCC29212) | MIC (E. coli MMX 0121 ΔTolC) | MIC (E. coli ATCC 25922; ATCC25922) | MIC [7] | MIC [8] | MIC (S. aureus BAA 977 iErmA) | MIC (S. pyogenes ATCC 19615; [10]) | MIC (S. pneumoniae ATCC 49619) | further results |
| --- | --- | --- | --- | --- | --- | --- | --- | --- | --- | --- | --- | --- | --- | --- | --- | --- | --- | --- | --- | --- | --- |
| Cc1ccc(S(=O)(=O)OCC2O[C@H]([C@H](NC(=O)[C@H]3NC[C@@H]4CC=CCO[C@H]43)[C@@H](C)O)C(O)[C@@H](O)[C@H]2O)cc1 (stereo partly shown) [FSA-211030] | > 64 mg/L | > 64 mg/L | > 64 mg/L | > 64 mg/L | > 64 mg/L | 32 mg/L (≈ 57.5 µM) | > 64 mg/L | > 64 mg/L | > 64 mg/L | > 64 mg/L | > 64 mg/L | > 64 mg/L | > 64 mg/L | > 64 mg/L | > 64 mg/L | > 64 mg/L | > 64 mg/L | > 64 mg/L | 1 mg/L (≈ 1.8 µM) | 32 mg/L (≈ 57.5 µM) | – |
| C[C@@H](O)[C@@H](NC(=O)[C@H]1NC[C@@H]2CC=CCO[C@H]21)[C@H]1OC(CN=[N+]=[N-])[C@H](O)[C@H](O)C1O (stereo partly shown) [FSA-211064] | > 64 mg/L | > 64 mg/L | > 64 mg/L | > 64 mg/L | > 64 mg/L | 16 mg/L (≈ 37.4 µM) | – | > 64 mg/L | > 64 mg/L | > 64 mg/L | > 64 mg/L | > 64 mg/L | > 64 mg/L | > 64 mg/L | > 64 mg/L | > 64 mg/L | > 64 mg/L | > 64 mg/L | 4 mg/L (≈ 9.36 µM) | 16 mg/L (≈ 37.4 µM) | MIC (C. difficile BAA 1805; [11]): 64 mg/L (≈ 150 µM) |
| CSC1O[C@H]([C@H](NC(=O)[C@@H]2[C@@H]3OCC=CC[C@H]3CN2C)[C@H](C)Sc2ccc(-c3cccnc3)cc2)C(O)[C@@H](O)[C@H]1O (stereo partly shown) [FSA-213064] | 16 mg/L (≈ 26.6 µM) | – | – | – | – | 0.125 mg/L (≈ 0.208 µM) | – | – | – | – | – | – | – | – | – | – | – | 0.25 mg/L (≈ 0.415 µM) | ≤ 0.125 mg/L | ≤ 0.125 mg/L | MIC (S. aureus ATCC 29213; [12]): 0.25 mg/L (≈ 0.415 µM); MIC (P. aeruginosa ATCC 27853; P. aeruginosa ATCC 27853, read-out: MIC): > 64 mg/L; MIC ([2]; E. faecalis MMX 847 Macrolide-Resistant (MacRes), read-out: MIC): > 64 mg/L; MIC ([5]; S. pyogenes MMX 946 Macrolide-Resistant (MacRes), read-out: MIC): 2 mg/L (≈ 3.32 µM); MIC (E. coli MP-9 ΔTolC): 16 mg/L (≈ 26.6 µM); MIC (E. faecalis ATCC 29212; ATCC29212, read-out: MIC): 32 mg/L (≈ 53.2 µM); MIC (E. coli ATCC 25922; ATCC25922, E. coli ATCC 25922, read-out: MIC): > 64 mg/L; MIC (K. pneumoniae ATCC 10031): 64 mg/L (≈ 106 µM); MIC [8, 13]: 8 mg/L (≈ 13.3 µM); MIC [9]: 0.25 mg/L (≈ 0.415 µM) |
| CSC1O[C@H]([C@H](NC(=O)[C@H]2NC[C@@H]3C=C(c4ccccc4)CCO[C@@H]23)[C@H](C)Cl)C(O)[C@@H](O)[C@H]1O (stereo partly shown) [FSA-507031] | > 32 mg/L | > 32 mg/L | > 32 mg/L | > 32 mg/L | > 32 mg/L | 16 mg/L (≈ 31.2 µM) | > 32 mg/L | > 32 mg/L | > 32 mg/L | > 32 mg/L | – | – | > 32 mg/L | > 32 mg/L | > 32 mg/L | > 32 mg/L | > 32 mg/L | > 32 mg/L | 32 mg/L (≈ 62.4 µM) | 32 mg/L (≈ 62.4 µM) | MIC (B. fragilis ATCC 25285; [14]): 32 mg/L (≈ 62.4 µM); MIC (H. influenzae ATCC 49247; H. influenzae ATCC 49247, read-out: MIC): 8 mg/L (≈ 15.6 µM) |
| C=CC1=CCO[C@@H]2[C@H](CN[C@@H]2C(=O)N[C@H]([C@H](C)Cl)[C@H]2OC(SC)[C@H](O)[C@H](O)C2O)C1 (stereo partly shown) [FSA-507041] | > 32 mg/L | – | > 32 mg/L | > 32 mg/L | > 32 mg/L | ≤ 0.03 mg/L | – | > 32 mg/L | > 32 mg/L | – | – | 16 mg/L (≈ 34.6 µM) | – | 16 mg/L (≈ 34.6 µM) | > 32 mg/L | > 32 mg/L | – | 0.5 mg/L (≈ 1.08 µM) | 0.06 mg/L (≈ 0.13 µM) | ≤ 0.03 mg/L | MIC (S. aureus ATCC 29213; [12]): 0.5 mg/L (≈ 1.08 µM); MIC (C. difficile BAA 1805; [11]): 0.5 mg/L (≈ 1.08 µM); MIC ([6]; S. aureus Micromyx USA 300, read-out: MIC): 0.25 mg/L (≈ 0.54 µM); MIC (B. fragilis ATCC 25285; [14]): 2 mg/L (≈ 4.32 µM); MIC (E. faecalis ATCC 29212; ATCC29212, read-out: MIC): 2 mg/L (≈ 4.32 µM); MIC [8, 13]: 32 mg/L (≈ 69.1 µM) |
| CSC1O[C@H]([C@H](NC(=O)[C@H]2NC[C@H]3CC=CCO[C@H]32)[C@H](C)Cl)C(O)[C@@H](O)[C@H]1O (stereo partly shown) [FSA-507051] | > 32 mg/L | 16 mg/L (≈ 36.6 µM) | > 32 mg/L | > 32 mg/L | > 32 mg/L | 1 mg/L (≈ 2.29 µM) | > 32 mg/L | > 32 mg/L | 32 mg/L (≈ 73.2 µM) | 16 mg/L (≈ 36.6 µM) | 32 mg/L (≈ 73.2 µM) | 16 mg/L (≈ 36.6 µM) | > 32 mg/L | > 32 mg/L | 32 mg/L (≈ 73.2 µM) | > 32 mg/L | > 32 mg/L | 16 mg/L (≈ 36.6 µM) | – | 1 mg/L (≈ 2.29 µM) | MIC (S. pyogenes ATCC 19615): 0.5 mg/L (≈ 1.14 µM) |
